The values below come from PubChem BioAssay (NCI).

The structures appear in SMILES notation.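 96-well plates; 48 h exposure; 5 concentrations. Endpoints by linear interpolation between flanking doses. Not reached: highest tested concentration assigned. TGI: concentration producing complete growth inhibition.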 A value given as a limit tells only on which side of the number the result lay.

Some test systems named below: NCI-H460 lung; MDA-N; SNB-19 CNS; COLO 205 colon; IGROV1 ovarian; SNB-75 CNS; MDA-MB-231 breast; SK-MEL-2 melanoma; OVCAR-5 ovarian; SF-539 CNS.
What all share (assay): NCI-60 cell line screen, 48 h

Turning to `O=[N+]([O-])c1ccc(O)c(/C=N/NC(=S)N2CCCCC2)c1`, the TGI with NCI-H460 lung was 38.3 µM; in the assay with MDA-N, 60.1 µM; with SNB-19 CNS it was more than 53.6 µM; with COLO 205 colon, more than 37.9 µM; with IGROV1 ovarian, 8.76 µM; in the assay on SNB-75 CNS it was 33.1 µM. Further, the TGI is 52.2 µM in the assay with MDA-MB-231 breast, 50.4 µM in the assay with SK-MEL-2 melanoma, more than 100 µM with OVCAR-5 ovarian and more than 100 µM in the assay with SF-539 CNS.

Take `COc1ccccc1C[C@@H]1OC2(C=CC(=O)C=C2)O[C@H]1Cc1ccccc1OC`: the TGI with NCI-H460 lung is more than 50 µM; in the assay with MDA-N, 21.7 µM; in the assay with SNB-19 CNS it was 24.2 µM; in the assay with COLO 205 colon, 14.9 µM; in the assay with IGROV1 ovarian it was 13.6 µM; in the assay with SNB-75 CNS it was 17.6 µM. In addition, the TGI in the assay with MDA-MB-231 breast turned out to be 38.6 µM; in the assay with SK-MEL-2 melanoma, 18.4 µM; in the assay with OVCAR-5 ovarian, 16.5 µM; in the assay with SF-539 CNS, 15.6 µM.

On to `C[N+]1(CCN[N+]2(C)CCCCC2)CCc2ccccc2C1` (stereo not given), for which the TGI with NCI-H460 lung, in the assay on MDA-N, in the assay with SNB-19 CNS, in the assay with COLO 205 colon, in the assay on IGROV1 ovarian and with SNB-75 CNS was more than 100 µM throughout. For the same compound, the TGI with MDA-MB-231 breast, in the assay with SK-MEL-2 melanoma, in the assay with OVCAR-5 ovarian and in the assay on SF-539 CNS was more than 100 µM in each case.

Regarding `CC(C)C1N(C)c2ccc(Cl)cc2[C@H]2c3ccccc3CCN12` (stereo not given in full), the TGI was more than 100 µM in the assay with NCI-H460 lung; 92 µM with MDA-N; more than 100 µM with SNB-19 CNS; more than 100 µM with COLO 205 colon; more than 100 µM in the assay with IGROV1 ovarian; more than 100 µM in the assay with SNB-75 CNS. Moreover, the TGI was 96.2 µM in the assay on MDA-MB-231 breast, 74.1 µM in the assay with SK-MEL-2 melanoma, more than 100 µM in the assay with OVCAR-5 ovarian and more than 100 µM in the assay on SF-539 CNS.

In the case of `O=C1c2cn[nH]c2C(c2ccccc2)N1c1ccccc1` (stereo not given), the TGI in the assay with NCI-H460 lung, in the assay with MDA-N, in the assay on SNB-19 CNS, in the assay with COLO 205 colon, with IGROV1 ovarian and in the assay on SNB-75 CNS was more than 10 µM in each case. Also, the TGI with MDA-MB-231 breast, with SK-MEL-2 melanoma, in the assay on OVCAR-5 ovarian and in the assay with SF-539 CNS was more than 10 µM in each case.

For the compound `C[C@H]1S[C@H](c2c(Cl)cccc2Cl)N2Cc3ccccc3N=C12`, the TGI with NCI-H460 lung is 32.4 µM; in the assay with MDA-N it was more than 100 µM; in the assay with SNB-19 CNS it was 23.3 µM; in the assay with COLO 205 colon, 25.2 µM; with IGROV1 ovarian, 26.1 µM; with SNB-75 CNS, 32.4 µM. The TGI with MDA-MB-231 breast was more than 100 µM; in the assay with SK-MEL-2 melanoma it was 26.1 µM; in the assay on OVCAR-5 ovarian it was 37.5 µM; with SF-539 CNS, 38.1 µM.
